The test system of assay [1] is VEGF164-stimulated bovine retinal capillary endothelial cell migration. The following applies: 8 h.
Description: BRCEC migration assay. Bovine retinal capillary endothelial cells (BRCEC) were isolated and cultured as described 45. […] Cells, between the fifth and ninth passage, were starved overnight in MEM with D-Val and 2% fetal bovine serum. Polycarbonate filters (10 μm pore-size, PVPF; Osmonics Inc., Minnetonka, Minn.) were coated with 100 μg/ml collagen. Quadruplicates with test samples in MEM D-Val (28 μl), and 10^4 cells in MEM D-Val (50 μl) were placed in the lower and upper wells, respectively, of the microchemotaxis chamber (NeuroProbe, Gaithersburg, Md.). After incubating 8 hours at 37° C., the non-migrated cells on the upper surface of the filter were removed, and the filters were stained with Harris' hematoxylin. For each of the test samples, one 400× field per quadrant of each of the quadruplicates was counted. From the total cell number in the 4 fields, the mean and standard error of the quadruplicate wells were calculated. Baseline migration equaled the number of migrated cells with MEM D-Val without any added proteins or peptides. The difference between baseline and the number of migrated cells with VEGF added equals maximal total migration.
Assay [2] has as its system VEGF-induced retinal vascular permeability. Nature of the assay: Evans blue assay after intravitreal co-injection with VEGF164. Type of assay: in vivo, mouse (C57BL/6J). Particulars: mouse eye, co-injected intravitreally with VEGF164 at 20-fold molar excess. As to the method: (§1) Intravitreal injection to assess bioactivity on vascular permeability. C57BL/6J mice, 6-8 weeks of age, were cared for in accordance with the Association for Research in Vision and Opthalmology Statement for the Use of Animals in Ophthalmic and Vision Research. For anesthesia, each received intramuscularly 20 mg/kg ketamine, 20 mg/kg xylazine and 800 mg/kg urethane in 0.3-0.4 ml of phosphate buffered saline (PBS, 1.06 mM KH2PO4, 0.15 M NaCl and 3.00 mM Na2HPO4, pH 7.4). Under 10× magnification, 1 μl of murine VEGF164 (12.6 ng/μl in PBS; R&D Systems, Minneapolis, Minn.) was delivered through a 20° beveled glass pipette, with a tip diameter of 13-20 μm. The contralateral eye received an equal volume of PBS alone or PBS containing 12.6 ng VEGF164, and a 20-fold molar excess of PEDF (232 ng), ACT (278 ng), HSP47 (278 ng), PEDFpep (28.1 ng), ACTpep (29.7 ng), or CHIMERApep (28.2 ng).
Evans Blue assay. […]
To assess the Evans blue-albumin concentration, the optical density of the retinal extract and plasma samples were measured at 620 nm and 740 nm. The retinal vasopermeability was calculated as the quantity of retinal Evans blue normalized to retinal dry weight, plasma Evans blue concentration, and circulation time by using the formula as described^32,44. […]

For assay [3] the test system is unchanged. Nature of the assay: Fluorescein angiography after intravitreal co-injection with VEGF164. Type of assay: in vivo, mouse (C57BL/6J). The following applies: mouse eye, co-injected intravitreally with 12.6 ng VEGF164 at 20-fold molar excess; 20 h after injection; qualitative. As to the method:
as §1
Fluorescein angiograghy. Twenty hours after intravitreal injections, each pupil was dilated with one drop of 1% atropine sulfate. After intraperitoneal injection of 0.1 ml of 25% fluorescein, successive retina photographs were taken with a Kowa Genesis camera. The first photograph was taken within 20 seconds of the intraperitoneal fluorescein injection. […] Fluorescein leakage manifests as indistinct vascular borders progressing to diffusely hazy fluorescence.

Ends that are not written are not given here.

Turning to “VLLSPLSVATALSALSLGAEQRTESIIHRALYYDLISSPDIHGT [PEDFpep]”, the half-maximal inhibitory concentration (IC50) in assay [1] worked out at 3 nM. Besides, in assay [2] (24 h, VEGF-induced increase = 100%, mean ±SE), the “inhibition of VEGF-induced retinal vascular permeability (Evans blue-albumin)” value is 83.7±17.1%. The “effect on VEGF-induced vascular permeability by Evans blue assay” value in assay [2] (qualitative statement) was “effectively inhibited”. Moreover, the “effect on VEGF-induced fluorescein leakage / vascular permeability (fluorescein angiography)” value in assay [3] is given as “effectively inhibits”.
